The assay concerns the target FYN (Homo sapiens (Human), UniProt P06241). As to the kind of experiment: Kinase inhibition assay (Caliper, FAM-labeled peptide substrate). The assay is classed as biochemical. As for the experimental part:
2.5 times of the kinase (VEGFR2 or EGFR or FYN) buffer solution was added to the compound diluted in equal concentration in the 384-well plate and incubated at 22-27° C. for 10 minutes, then 2.5 times of the FAM-labeled peptide substrate and ATP buffer solution were added therein and incubated at 28° C., and then the stop buffer solution was added to stop the reaction. The data was read by Caliper and the following formula was used to calculate the IC50 inhibition: Percent inhibition=(max-conversion)/(max-min)*100. Staurosporine was used as a control. In kinase inhibition assays, some of the compounds of the present invention are effective in inhibiting VEGFR2/FYN/EGFR, so they have the potential for treating or preventing cancer or central nervous system diseases (Table 1).

The structures appear in SMILES notation.

Sequence of FYN (P06241 whole entry): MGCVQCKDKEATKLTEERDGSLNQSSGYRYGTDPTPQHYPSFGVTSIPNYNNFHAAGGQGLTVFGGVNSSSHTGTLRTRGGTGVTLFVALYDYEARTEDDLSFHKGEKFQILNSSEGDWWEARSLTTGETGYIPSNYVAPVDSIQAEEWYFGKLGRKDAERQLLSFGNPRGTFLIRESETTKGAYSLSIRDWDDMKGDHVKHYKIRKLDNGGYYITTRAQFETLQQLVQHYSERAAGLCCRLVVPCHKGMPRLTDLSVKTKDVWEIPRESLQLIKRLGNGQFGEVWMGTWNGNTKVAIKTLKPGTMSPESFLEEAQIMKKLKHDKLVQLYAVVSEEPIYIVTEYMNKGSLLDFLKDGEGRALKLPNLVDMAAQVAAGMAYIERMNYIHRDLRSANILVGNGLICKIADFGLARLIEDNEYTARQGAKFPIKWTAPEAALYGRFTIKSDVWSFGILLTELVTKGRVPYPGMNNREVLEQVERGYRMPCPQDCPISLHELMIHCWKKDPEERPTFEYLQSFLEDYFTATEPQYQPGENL

As to `COc1cc(OC2CCN(C)CC2(F)F)c2c(Nc3cc(OC)c(Cl)cc3F)ncnc2c1` (racemic) [Compound 8, (R/S)—N-(4-chloro-2-fluoro-5-methoxyphenyl)-5-((3,3-difluoro-1-methylpiperidin-4-yl)oxy)-7-methoxyquinazolin-4-amine], the IC50 (commonly the point on the concentration scale where inhibition reaches its midpoint) is < 100 nM.
For the molecule `CCOc1cc(O[C@H]2CCN(C)CC2(F)F)c2c(Nc3c(Cl)ccc4c3OCO4)ncnc2c1` [Compound 41, (S)—N-(5-chlorobenzo[d][1,3]dioxolcyclopenten-4-yl)-5-((3,3-difluoro-1-methylpiperidin-4-yl)oxy)-7-ethoxyquinazolin-4-amine], the IC50 was < 100 nM.
On to `COc1cc(O[C@@H]2CCN(C3COC3)CC2(F)F)c2c(Nc3c(F)ccc4c3OCO4)ncnc2c1` [Compound 29, (R)-5-((3,3-difluoro-1-(oxetane-3-yl)piperidin-4-yl)oxy)-N-(5-fluorobenzo[d] [1,3]dioxolcyclopenten-4-yl)-7-methoxyquinazolin-4-amine], for which the IC50 is < 100 nM.
On to `CCOc1cc(OC2CCN(C)CC2(F)F)c2c(Nc3c(Cl)ccc4c3OCO4)ncnc2c1` (racemic) [Compound 9, (R/S)—N-(5-chlorobenzo[d][1,3]dioxolcyclopenten-4-yl)-5-((3,3-difluoro-1-methylpiperidin-4-yl)oxy)-7-ethoxyquinazolin-4-amine], for which the IC50 is < 100 nM.
In the case of `COc1cc(O[C@@H]2CCN(C)CC2(F)F)c2c(Nc3c(Cl)ccc4c3OCO4)ncnc2c1` [Compound 28, (R)—N-(5-chlorobenzo[d] [1,3]dioxolcyclopenten-4-yl)-5-((3,3-difluoro-1-methylpiperidin-4-yl)oxy)-7-deuterated methoxyquinazolin-4-amine], the IC50 is < 100 nM.
As to `COc1cc(O[C@@H]2CCN(C)CC2(F)F)c2c(Nc3c(F)ccc4c3OCO4)ncnc2c1` [Compound 23, (R)—N-(5-fluorobenzo[d][1,3]dioxolcyclopenten-4-yl)-5-((3,3-difluoro-1-methylpiperidin-4-yl)oxy)-7-deuterated methoxyquinazolin-4-amine], the IC50 was < 100 nM.
For the molecule `CCN1CCC(Oc2cc(OC)cc3ncnc(Nc4c(F)ccc5c4OCO5)c23)C(F)(F)C1` (racemic) [Compound 10, (R/S)-5-((1-ethyl-3,3-difluoropiperidin-4-yl)oxy)-N-(5-fluorobenzo[d] [1,3]dioxolcyclopenten-4-yl)-7-methoxyquinazolin-4-amine], the IC50 is < 100 nM.
As to `CCOc1cc(O[C@@H]2CCN(C)CC2(F)F)c2c(Nc3c(Cl)ccc4c3OCO4)ncnc2c1` [Compound 25, (R)—N-(5-chlorobenzo[d][1,3]dioxolcyclopenten-4-yl)-5-((3,3-difluoro-1-methylpiperidin-4-yl)oxy)-7-ethoxyquinazolin-4-amine], the IC50 was < 100 nM.
In the case of `COc1cc(OC2CCN(C3COC3)CC2(F)F)c2c(Nc3c(F)ccc4c3OCO4)ncnc2c1` (racemic) [Compound 13, (R/S)-5-((3,3-difluoro-1-(oxetane-3-yl)piperidin-4-yl)oxy)-N-(5-fluorobenzo[d][1,3]dioxolcyclopenten-4-yl)-7-methoxyquinazolin-4-amine] it was < 100 nM; in that of `COc1cc(OC2CCN(C)CC2(F)F)c2c(Nc3c(Cl)ccc4c3OCO4)ncnc2c1` (racemic) [Compound 12, (R/S)—N-(5-chlorobenzo[d] [1,3]dioxolcyclopenten-4-yl)-5-((3,3-difluoro-1-methylpiperidin-4-yl)oxy)-7-deuterated methoxyquinazolin-4-amine], < 100 nM.
As to `CCN1CC[C@@H](Oc2cc(OC)cc3ncnc(Nc4c(F)ccc5c4OCO5)c23)C(F)(F)C1` [Compound 26, (R)-5-((1-ethyl-3,3-difluoropiperidin-4-yl)oxy)-N-(5-fluorobenzo[d] [1,3]dioxolcyclopenten-4-yl)-7-methoxyquinazolin-4-amine], the IC50 was < 100 nM.
Regarding `COc1cc(OC2CCN(C(C)C)CC2(F)F)c2c(Nc3c(F)ccc4c3OCO4)ncnc2c1` (racemic) [Compound 15, (R/S)-5-((3,3-difluoro-1-isopropylpiperidin-4-yl)oxy)-N-(5-fluorobenzo[d][1,3]dioxolcyclopenten-4-yl)-7-methoxyquinazolin-4-amine], the IC50 was < 100 nM.
Turning to `CCOc1cc(OC2CCN(C)CC2(F)F)c2c(Nc3c(F)ccc4c3OCO4)ncnc2c1` (racemic) [Compound 6, (R/S)—N-(5-fluorobenzo[d][1,3]dioxolcyclopenten-4-yl)-5-((3,3-difluoro-1-methylpiperidin-4-yl)oxy)-7-ethoxyquinazolin-4-amine], the IC50 was < 100 nM.
The value for `COc1cc(O[C@H]2CCN(C)CC2(F)F)c2c(Nc3cc(OC)c(Cl)cc3F)ncnc2c1` [Compound 40, (S)—N-(4-chloro-2-fluoro-5-methoxyphenyl)-5-((3,3-difluoro-1-methylpiperidin-4-yl)oxy)-7-methoxyquinazolin-4-amine] was < 100 nM; that for `COc1cc(O[C@H]2CCN(C)CC2(F)F)c2c(Nc3c(Cl)ccc4c3OCO4)ncnc2c1` [Compound 44, (S)—N-(5-chlorobenzo[d] [1,3]dioxolcyclopenten-4-yl)-5-((3,3-difluoro-1-methylpiperidin-4-yl)oxy)-7-deuterated methoxyquinazolin-4-amine] was < 100 nM.
As to `COc1cc(OC2CCN(C)CC2(F)F)c2c(Nc3c(F)ccc4c3OCO4)ncnc2c1` (racemic) [Compound 5, (R/S)—N-(5-fluorobenzo[d][1,3]dioxolcyclopenten-4-yl)-5-((3,3-difluoro-1-methylpiperidin-4-yl)oxy)-7-methoxyquinazolin-4-amine], the IC50 was < 100 nM.
In the case of `COc1cc(O[C@H]2CCN(C3COC3)CC2(F)F)c2c(Nc3c(Cl)ccc4c3OCO4)ncnc2c1` [Compound 46, (S)-5-((3,3-difluoro-1-(oxetane-3-yl)piperidin-4-yl)oxy)-N-(5-chlorobenzo[d][1,3]dioxolcyclopenten-4-yl)-7-methoxyquinazolin-4-amine], the IC50 was < 100 nM.
With `COc1cc(O[C@H]2CCN(C)CC2(F)F)c2c(Nc3c(Cl)ccc4c3OCO4)ncnc2c1` [Compound 36, (S)—N-(5-chlorobenzo[d][1,3]dioxolcyclopenten-4-yl)-5-((3,3-difluoro-1-methylpiperidin-4-yl)oxy)-7-methoxyquinazolin-4-amine], the IC50 was < 100 nM.
For `COc1cc(O[C@H]2CCN(C)CC2(F)F)c2c(Nc3c(F)ccc4c3OCO4)ncnc2c1` [Compound 37, (S)—N-(5-fluorobenzo[d][1,3]dioxolcyclopenten-4-yl)-5-((3,3-difluoro-1-methylpiperidin-4-yl)oxy)-7-methoxyquinazolin-4-amine], the IC50 was < 100 nM.
Regarding `COc1cc(O[C@@H]2CCN(C)CC2(F)F)c2c(Nc3c(F)ccc4c3OCO4)ncnc2c1` [Compound 21, (R)—N-(5-fluorobenzo[d][1,3]dioxolcyclopenten-4-yl)-5-((3,3-difluoro-1-methylpiperidin-4-yl)oxy)-7-methoxyquinazolin-4-amine], the concentration for half-maximal inhibition (IC50) was < 100 nM.
With `CCN1CC[C@H](Oc2cc(OC)cc3ncnc(Nc4c(F)ccc5c4OCO5)c23)C(F)(F)C1` [Compound 42, (S)-5-((1-ethyl-3,3-difluoropiperidin-4-yl)oxy)-N-(5-fluorobenzo[d] [1,3]dioxolcyclopenten-4-yl)-7-methoxyquinazolin-4-amine], the IC50 was < 100 nM.
Regarding `CCOc1cc(O[C@H]2CCN(C)CC2(F)F)c2c(Nc3c(F)ccc4c3OCO4)ncnc2c1` [Compound 38, (S)—N-(5-fluorobenzo[d][1,3]dioxolcyclopenten-4-yl)-5-((3,3-difluoro-1-methylpiperidin-4-yl)oxy)-7-ethoxyquinazolin-4-amine], the IC50 is < 100 nM.
In the case of `COc1cc(O[C@@H]2CCN(C3COC3)CC2(F)F)c2c(Nc3c(Cl)ccc4c3OCO4)ncnc2c1` [Compound 30, (R)-5-((3,3-difluoro-1-(oxetane-3-yl)piperidin-4-yl)oxy)-N-(5-chlorobenzo[d][1,3]dioxolcyclopenten-4-yl)-7-methoxyquinazolin-4-amine] it was < 100 nM; in that of `COc1cc(OC2CCN(C)CC2(F)F)c2c(Nc3c(Cl)ccc4c3OCO4)ncnc2c1` (racemic) [Compound 4, (R/S)—N-(5-chlorobenzo[d][1,3]dioxolcyclopenten-4-yl)-5-((3,3-difluoro-1-methylpiperidin-4-yl)oxy)-7-methoxyquinazolin-4-amine], < 100 nM; in that of `COc1cc(OC2CCN(C3COC3)CC2(F)F)c2c(Nc3c(Cl)ccc4c3OCO4)ncnc2c1` (racemic) [Compound 14, (R/S)-5-((3,3-difluoro-1-(oxetane-3-yl)piperidin-4-yl)oxy)-N-(5-chlorobenzo[d][1,3]dioxolcyclopenten-4-yl)-7-methoxyquinazolin-4-amine], < 100 nM.
As to `COc1cc(O[C@@H]2CCN(C(C)C)CC2(F)F)c2c(Nc3c(F)ccc4c3OCO4)ncnc2c1` [Compound 31, (R)-5-((3,3-difluoro-1-isopropylpiperidin-4-yl)oxy)-N-(5-fluorobenzo[d] [1,3]dioxolcyclopenten-4-yl)-7-methoxyquinazolin-4-amine], the IC50 is < 100 nM.
Take `CCOc1cc(O[C@@H]2CCN(C)CC2(F)F)c2c(Nc3c(F)ccc4c3OCO4)ncnc2c1` [Compound 22, (R)—N-(5-fluorobenzo[d][1,3]dioxolcyclopenten-4-yl)-5-((3,3-difluoro-1-methylpiperidin-4-yl)oxy)-7-ethoxyquinazolin-4-amine]: the IC50 was < 100 nM.
For `COc1cc(O[C@H]2CCN(C(C)C)CC2(F)F)c2c(Nc3c(F)ccc4c3OCO4)ncnc2c1` [Compound 47, (S)-5-((3,3-difluoro-1-isopropylpiperidin-4-yl)oxy)-N-(5-fluorobenzo[d][1,3]dioxolcyclopenten-4-yl)-7-methoxyquinazolin-4-amine], the IC50 was < 100 nM.

Values taken from patent US11713306B2, “5-substituted difluoropiperidine compounds with blood-brain barrier penetrable capability” (Wayshine Biopharm Holding Limited, priority 2018, dated 2023).
